Literature values in patent publication US20050112210A1, “Eye nutritional supplement” (priority 2003, published 2005).

System: A2E-epoxidation
Conditions: singlet oxygen generated in the presence of A2E

Row | Compound | effect on A2E-epoxidation
1 | Cc1cc(C(C)(C)C)c(O)c(C(C)(C)C)c1 [butylated hydroxytoluene] | reduced A2E-epoxidation by quenching singlet oxygen
2 | Oc1ccc(C=Cc2cc(O)cc(O)c2)cc1 [resveratrol] | reduced A2E-epoxidation by quenching singlet oxygen
3 | vitamin E | reduced A2E-epoxidation by quenching singlet oxygen
